The values that follow are results of earlier work, collected in patent US12256762B2, “Sweetener composition and methods of making it” (eBIO Nutritional Sciences LLC, priority 2017, dated 2025).

For the data set the following is noted: published partition coefficients.
On to `C=C1C[C@@]23CC[C@H]4[C@@](C)(CCC[C@@]4(C)C(=O)O)[C@@H]2CC[C@]1(O)C3` [Steviol, reference compound], for which the “Partition Coefficient (log P)” value is listed as 3.18. On to `CC/C=C\C/C=C\C/C=C\CCCCCCCC(=O)O` [Alpha-Linolenic C18:3], for which the “Partition Coefficient (log P)” value is given as 6.59.

Turning to `CCCCCCCC/C=C\CCCCCCCC(=O)O` [Oleic C18:1], the “Partition Coefficient (log P)” value is 7.68. For the molecule `CCCCC/C=C\C/C=C\CCCCCCCC(=O)O` [Linoleic C18:2], the “Partition Coefficient (log P)” value is on record as 7.06. In the case of Cucurbitacin [reference compound], the “Partition Coefficient (log P)” value is on record as 3.19. For `CCCCCCCCCCCCCCCCCC(=O)O` [Stearic C18:0], the “Partition Coefficient (log P)” value is recorded as 8.02.

With `CCCCCCCCCCCCCCCC(=O)O` [Palmitic C16:0], the “Partition Coefficient (log P)” value was 7.23.
